“Also recorded” adds a separate entry of the source. Where two headings read alike, the source gives them in different places. Where a SMILES comes first, the peptide text is derived from it. Where no end group is shown, it is not given here. [ ]: non-standard residue; d: D form.
Assays:
[1] = rat, in vivo, sc, 25 mg/kg
Method: (§1) Rats were anaesthetized in the supine position (Isoflurane 1.5--%) and allowed to breath spontaneously in 0.5 L/min 02. The left femoral artery was cannulated for blood sampling.
(§2) Test agents were prepared at the stablish concentration in a total volume of vehicle. Pulmonary instillation was performed by intubation with a 14G catheter connected to a 1 cc syringe and the test agent will be delivered through the catheter. Subcutaneous (SQ or SC) injection was injected into the area of the left flank, no more than 2 ml of total volume per site.
(§3) Each dose was evaluated in 3 rats for each administration strategy. […] For the first experiment, evaluating two different administration routes (SQ and PI), blood samples were collected at 8 different timepoints: Pre and at 7 additional times (1, 2.5, 5, 10, 15, 30, 60 min) post dose (250 ul/sample).
(§4) HPLC quantification: Plasma was separated from blood and stored at −−−80° C. until used. […] Standard curves for HPLC were generated from plasma samples spiked with known quantities of test agent.

[2] = target: tPA (Homo sapiens, UniProt P00750)
[3] = MTD studies and renal toxicity in rats (creatinine, BUN)
[4] = tested on: histamine release; details: rat, in vivo, iv, 7.6 mg/kg
Method: (§5) Histamine levels were quantified by using commercially available histamine ELISA assay kit (Histamine ELISA-H1531-K01, Eagle Bioscience). The plates were coated with the plasma samples (50 ul/well) incubated for 60 minutes at room temperature on an orbital shaker with medium frequency. Then 100 ul of enzyme conjugate was added to the wells and incubated for 20 minutes at room temperature. […] The reaction was stopped with 100 ul H2SO4. Absorbance was determined on an ELISA plate reader at 450 nm.
(§6) Blood samples were taken at pre-injection and at 0, 1, 2.5, 5, 10, 15, 30- and 60-minutes post dose and used for histamine levels quantification using commercially available kit.

[5] = target: T1, PSD95PDZ2 (Homo sapiens, UniProt P78352); assay: Competitive ELISA with biotinylated-NA-1; details: for IC50's relative to each other: FIG. 11, within the margin of error
Target sequence in this assay (P78352 160-246 limits assumed): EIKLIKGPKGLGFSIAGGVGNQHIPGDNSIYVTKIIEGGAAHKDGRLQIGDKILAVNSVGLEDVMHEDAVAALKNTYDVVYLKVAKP

[6] = Plasma concentrations 15 minutes post subcutaneous dose (animals of the 3PVO model); format: in vivo, rat
Method: Unlike transient models of stroke in rats where much lower doses are required for neuroprotection, neuroprotection in 3 pial vessel occlusion models of stroke seems to require plasma concentrations of nerinetide at or above 2 ug/mL (or molar equivalent). […] Although the plasma levels continue to increase through about 3 hours then decrease, it is important to achieve rapid accumulation in the blood and brain for emergency indications like stroke. […] For pharmacokinetic sample analysis, calibration standard samples at concentrations of 0, 2.5, 5, 10, 15, 20 and 40 ug/mL of nerinetide were prepared by spiking 1 μL of the appropriate stock to 100 μL of plasma. […] Data is presented as mean±SD.

[7] = Pharmacokinetic analysis in rats (subcutaneous, pulmonary instillation, intravenous, intramuscular), HPLC
Method: as §1, §2, §3, §4

[8] = Physiologic parameters of NHP animals post NA-3 subcutaneous dose; format: in vivo, cynomolgus macaques
[9] = tested on: histamine release; assay: Histamine release in rats, plasma histamine ELISA; details: rats
Method: as §5, §6

[10] = NA-3 pharmacokinetics after subcutaneous injection in non-human primates; format: in vivo, cynomolgus macaques; details: for plasma concentrations achieved: cynomolgus macaques
Source text: All values are presented as mean±SD; Statistical significance when compared to nerinetide alone is indicated as * (one-way ANOVA with post-hoc turkey's correction, *P<0.01). (Cmax: maximum plasma concentrations based on the extrapolated time-zero value; t1/2: half-life at terminal phase; tmax: time to reach Cmax; AUC0-t: area under the concentration-time curve from 0 to the last measured value; AUC0-inf: extrapolated area under the concentration-time curve from 0 to infinity; Cl: total clearance). Data is presented as mean±SD of three-four animals per group. The (-) represent data not reported due to an extrapolation of the AUC0-inf greater than 20% and R^2 lower than 0.9.

[11] = target: PSD-95 PDZ domain 2 (UniProt P78352); assay: competitive ELISA on coated PSD95PDZ2
Chain of PSD-95 PDZ domain 2 (P78352 160-246 limits assumed): as above

[12] = target: T1, PSD95PDZ2; assay: direct ELISA; biotinylated peptide (Bio-D-NA1)
Target sequence in this assay (P78352 160-246): as the sequence (P78352 160-246 limits assumed) above

[13] = target: PSD-95 PDZ domain 2 (UniProt P78352); assay: competitive ELISA on coated PSD95PDZ2, competitor biotinylated NA-1
[14] = target: T1, PSD95PDZ2; assay: direct ELISA; biotinylated peptide (Bio-D-Tat-L-NA1); unit printed "um"
Target sequence in this assay (P78352 160-246): as the sequence (P78352 160-246 limits assumed) above

[15] = tested on: plasmin; assay: digested with plasmin
[16] = rat plasma in vitro with tPA administered simultaneously

Chain of tPA (P00750 36-562): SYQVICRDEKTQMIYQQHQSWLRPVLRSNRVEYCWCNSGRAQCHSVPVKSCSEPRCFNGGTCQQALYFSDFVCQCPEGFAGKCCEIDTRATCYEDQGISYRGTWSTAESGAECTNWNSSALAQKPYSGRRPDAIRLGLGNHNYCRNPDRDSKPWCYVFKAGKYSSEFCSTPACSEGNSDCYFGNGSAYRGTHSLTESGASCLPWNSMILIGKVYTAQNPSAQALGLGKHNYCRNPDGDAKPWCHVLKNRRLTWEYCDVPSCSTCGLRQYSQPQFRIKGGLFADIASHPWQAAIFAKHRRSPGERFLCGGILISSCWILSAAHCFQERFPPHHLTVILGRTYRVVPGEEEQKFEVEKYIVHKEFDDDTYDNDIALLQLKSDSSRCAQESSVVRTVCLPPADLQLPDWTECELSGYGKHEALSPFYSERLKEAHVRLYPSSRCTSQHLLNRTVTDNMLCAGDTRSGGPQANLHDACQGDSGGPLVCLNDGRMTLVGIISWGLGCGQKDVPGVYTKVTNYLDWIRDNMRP

CC[C@H](C)[C@H](NC(=O)[C@H](CO)NC(=O)[C@H](CO)NC(=O)[C@H](CC(C)C)NC(=O)[C@H](CCCCN)NC(=O)[C@@H](CCCNC(=N)N)NC(=O)[C@@H](CCCNC(=N)N)NC(=O)[C@@H](CCCNC(=N)N)NC(=O)[C@@H](CCC(N)=O)NC(=O)[C@@H](CCCNC(=N)N)NC(=O)[C@@H](CCCNC(=N)N)NC(=O)[C@@H](CCCCN)NC(=O)[C@@H](CCCCN)NC(=O)[C@@H](CCCNC(=N)N)NC(=O)CNC(=O)[C@H](N)Cc1ccc(O)cc1)C(=O)N[C@@H](CCC(=O)O)C(=O)N[C@@H](CO)C(=O)N[C@@H](CC(=O)O)C(=O)N[C@H](C(=O)O)C(C)C [D-Tat-L-2B9C] (HELM PEPTIDE1{[dY].G.[dR].[dK].[dK].[dR].[dR].[dQ].[dR].[dR].[dR].K.L.S.S.I.E.S.D.V}$$$$V2.0; N-terminus and C-terminus assumed)
AUC compared with subcutaneous NA-1 [1]: increased Cmax and AUC relative to subcutaneous NA-1 but not to the same extent | Cmax compared with subcutaneous NA-1 [1]: increased Cmax and AUC relative to subcutaneous NA-1 but not to the same extent | degradation, control treatment with tPA [2]: no degradation | creatinine versus the same dose level of NA-3 ([3]; rats, subcutaneous 25 mg/kg): Much less creatinine is observed | histamine release [4]: did result in significant histamine release | IC50 [5]: < 5000 nM | IC50's relative to each other [5]: within a factor of two of each other | EC50 (compared between peptides) ([5]; PSD-95 domain 2, FIG. 12): about the same within experimental error

CC[C@H](C)[C@H](NC(=O)[C@@H](CO)NC(=O)[C@@H](CO)NC(=O)[C@@H](CC(C)C)NC(=O)[C@@H](CCCCN)NC(=O)[C@@H](CCCNC(=N)N)NC(=O)[C@@H](CCCNC(=N)N)NC(=O)[C@@H](CCCNC(=N)N)NC(=O)[C@@H](CCC(N)=O)NC(=O)[C@@H](CCCNC(=N)N)NC(=O)[C@@H](CCCNC(=N)N)NC(=O)[C@@H](CCCCN)NC(=O)[C@@H](CCCCN)NC(=O)[C@@H](CCCNC(=N)N)NC(=O)CNC(=O)[C@H](N)Cc1ccc(O)cc1)C(=O)N[C@@H](CCC(=O)O)C(=O)N[C@@H](CO)C(=O)N[C@@H](CC(=O)O)C(=O)N[C@H](C(=O)O)C(C)C [NA-3, ygrkkrrqrrrklssIESDV] (HELM PEPTIDE1{[dY].G.[dR].[dK].[dK].[dR].[dR].[dQ].[dR].[dR].[dR].[dK].[dL].[dS].[dS].I.E.S.D.V}$$$$V2.0; N-terminus and C-terminus assumed)
plasma concentration compared to nerinetide at the same dose ([6]; 15 min post subcutaneous dose): higher concentration at 15 min post-dose | relation between treatment dose and Cmax ([6]; single subcutaneous administration, 2.5, 7.6, 25 mg/kg): dose proportionality between the treatment dose and the Cmax | plasma concentration and plasma exposure relative to intrapulmonary NA-1 ([7]; pulmonary instillation): higher plasma concentration and a greater plasma exposure | CMax after pulmonary instillation ([7]; pulmonary instillation 25 mg/kg): higher CMax than for NA-1 or D-Tat-L-2B9C | AUC compared with subcutaneous NA-1 ([7]; subcutaneous 25 mg/kg): increased | Cmax compared with subcutaneous NA-1 ([7]; subcutaneous 25 mg/kg): increased | dose dependence of Cmax and AUC ([7]; subcutaneous 25, 8.3, 2.8 mg/kg): dose-dependent increasing linearly with dose | therapeutic index ([3]; minimum effective dose versus highest no observed adverse effect level): low | creatinine and BUN values out of range ([3]; rats, subcutaneous 7.6 mg/kg or 2.6 mg/kg): No values out of range were observed | persistence of creatinine and BUN increases ([3]; rats, subcutaneous 25 mg/kg): persisted through day 7 | creatinine and BUN (blood urea nitrogen) ([3]; rats, subcutaneous 25 mg/kg or 50 mg/kg, day 1 post dose): dose-dependent increases in creatinine and BUN | creatinine levels on reducing the dose 2-fold ([3]; rats, subcutaneous, versus 25 mg/kg NA-3, pre and after 1 day): significant reduction of the NA-3 creatinine levels | drops in blood pressure compared to NA-1 [8]: No significant drops in blood pressure were observed | safety issues in physiologic parameters compared to intravenous nerinetide [8]: no significant safety issues were identified | IC50 [5]: < 5000 nM | IC50's relative to each other [5]: within a factor of two of each other | histamine release ([9]; 25 mg/kg SQ): resulted in histamine release but still much less than 7.6 mg/kg IV | histamine release ([9]; subcutaneous 2.8 mg/kg): did not result in significant histamine release | histamine release ([9]; subcutaneous 8.3 mg/kg): did not result in significant histamine release | plasma concentrations achieved ([10]; subcutaneous 7.6 mg/Kg): able to achieve plasma concentrations higher than those demonstrated to be effective in humans | plasma concentrations achieved ([10]; subcutaneous 25 mg/kg): able to achieve plasma concentrations higher than those demonstrated to be effective in humans | Cmax and AUC versus nerinetide IV infusion ([10]; subcutaneous 25 mg/kg): greater Cmax and AUC than nerinetide IV infusion

D-NA-1 (peptide)
fold change of EC50 against NA-1 and D-Tat-L-2B9C [11]: 10 fold

D-NA-1 NA1
EC50 [12]: 1380 nM

D-TAT-L-2B9c (peptide)
ratio of IC50 against D-Tat-L-IESDV [13]: < 2 fold

D-Tat-L-NA-1
EC50 [14]: 139 nM

YGRKKRRQRRRKLSSIESDV
fragment found [15]: RRQRRRKLSSIESDV; also recorded: RQRRRKLSSIESDV; also recorded: QRRRKLSSIESDV; also recorded: RRKLSSIESDV; also recorded: RKLSSIESDV; also recorded: KLSSIESDV; also recorded: LSSIESDV

yGrkkrrqrrrKLSSIESDV ([dY]G[dR][dK][dK][dR][dR][dQ][dR][dR][dR]KLSSIESDV)
not cleaved [16]: only negligible degradation when co-administered with tPA
